Data on 19 compounds can be found in ChEMBL document CHEMBL1144426, “Adenosine kinase inhibitors. 4. 6,8-Disubstituted purine nucleoside derivatives. Synthesis, conformation, and enzyme inhibition” (J Med Chem, 2005).

For the test, the target named is Adenosine kinase (Homo sapiens, UniProt P55263). As to the kind of experiment: Inhibitory activity against Human Recombinant Adenosine Kinase.
Sequence of Adenosine kinase (P55263 whole entry): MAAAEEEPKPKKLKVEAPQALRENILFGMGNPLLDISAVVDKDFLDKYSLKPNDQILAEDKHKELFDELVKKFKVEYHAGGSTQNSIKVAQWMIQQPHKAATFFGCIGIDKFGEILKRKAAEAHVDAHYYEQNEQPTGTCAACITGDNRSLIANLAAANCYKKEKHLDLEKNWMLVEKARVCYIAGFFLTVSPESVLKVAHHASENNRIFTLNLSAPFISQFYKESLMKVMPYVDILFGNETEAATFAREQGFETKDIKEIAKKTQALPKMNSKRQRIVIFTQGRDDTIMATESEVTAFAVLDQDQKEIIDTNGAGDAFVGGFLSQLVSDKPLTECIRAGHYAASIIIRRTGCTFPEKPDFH
As to `CCc1nc2c(N3CCc4ccccc43)ncnc2n1[C@@H]1O[C@H](CO)[C@@H](O)[C@H]1O`, the IC50 was 230 nM.

With `CSc1nc2c(Nc3ccccc3)ncnc2n1[C@@H]1O[C@H](CO)[C@@H](O)[C@H]1O`, the IC50 is 1000 nM. As for `CSc1nc2c(N3CCc4ccccc43)ncnc2n1[C@@H]1O[C@H](CO)[C@@H](O)[C@H]1O`, the IC50 worked out at 150 nM.

As to `C[C@H]1O[C@@H](n2cc(-c3ccccc3)c3c(N4CCc5ccccc54)ncnc32)[C@H](O)[C@@H]1O`, the IC50 turned out to be 51 nM. Turning to `OC[C@H]1O[C@@H](n2c(N3CCc4ccccc43)nc3c(Nc4ccccc4)ncnc32)[C@H](O)[C@@H]1O`, the IC50 worked out at 7100 nM. `OC[C@H]1O[C@@H](n2cnc3c(N4CCc5ccccc54)ncnc32)[C@H](O)[C@@H]1O`: the IC50 was 500 nM. In the case of `OC[C@H]1O[C@@H](n2c(Cl)nc3c(Nc4ccccc4)ncnc32)[C@H](O)[C@@H]1O`, the IC50 was found to be 3600 nM. On to `C#Cc1nc2c(N3CCc4ccccc43)ncnc2n1[C@@H]1O[C@H](CO)[C@@H](O)[C@H]1O`, for which the IC50 came to 1000 nM. In the case of `OC[C@H]1O[C@@H](n2c(Cl)nc3c(N4CCc5ccccc54)ncnc32)[C@H](O)[C@@H]1O` it was 480 nM; in that of `OC[C@H]1O[C@@H](n2c(Nc3ccccc3)nc3c(Nc4ccccc4)ncnc32)[C@H](O)[C@@H]1O`, 90 nM. Consider `OC[C@H]1O[C@@H](n2c(Nc3ccccc3)nc3c(N4CCc5ccccc54)ncnc32)[C@H](O)[C@@H]1O`, for which the IC50 was 19 nM.

In the case of `OC[C@H]1O[C@@H](n2c(-c3ccco3)nc3c(Nc4ccccc4)ncnc32)[C@H](O)[C@@H]1O`, the IC50 worked out at 6900 nM. In the case of `OC[C@H]1O[C@@H](n2c(-c3ccco3)nc3c(N4CCc5ccccc54)ncnc32)[C@H](O)[C@@H]1O` it was 2900 nM; in that of `OC[C@H]1O[C@@H](n2c(I)nc3c(Nc4ccccc4)ncnc32)[C@H](O)[C@@H]1O`, 4500 nM. In the case of `OC[C@H]1O[C@@H](n2c(N3CCc4ccccc43)nc3c(N4CCc5ccccc54)ncnc32)[C@H](O)[C@@H]1O` it was 2000 nM; in that of `C=Cc1nc2c(N3CCc4ccccc43)ncnc2n1[C@@H]1O[C@H](CO)[C@@H](O)[C@H]1O`, 60 nM. For `OC[C@H]1O[C@@H](n2c(I)nc3c(N4CCc5ccccc54)ncnc32)[C@H](O)[C@@H]1O`, the IC50 was found to be 1000 nM.

As for `C=Cc1nc2c(Nc3ccccc3)ncnc2n1[C@@H]1O[C@H](CO)[C@@H](O)[C@H]1O`, the IC50 was determined as 300 nM. For `C[C@H]1O[C@@H](n2c(Nc3ccccc3)nc3c(N4CCc5ccccc54)ncnc32)[C@H](O)[C@@H]1O`, the IC50 worked out at 200 nM.

By IC50 is commonly meant the concentration at which inhibition is half-maximal.
